Here are results for 1 compound from patent publication US12178210B2, “Insect attractant and killing system” (priority 2020, dated 2024).

Like-named read-outs stand apart in the source and are kept apart here.

The conditions of the series: field, Córdoba, initial amount 15 g, UV8, 1.6 mm orifice. As to the method:
The devices consisted of a pesticide coated insecticide transfer envelope (˜10 mg of deltamethrin) equipped with a hook containing an attractant lure on the inside of the envelope (see FIG. 3). Attractant lures inside Magnet™ ORO were labelled and individually weighed at different periods of time. Qualitative identity of the remaining material was assessed by means of FTIR and compared with standards. Each lure was constructed using polypropylene/calcium carbonate film (UV8) as the membrane and Scotchpak™ (3M) polyester laminate film as the impermeable barrier material and a 1.6 mm ( 1/16 in) diameter spherical punch in the impermeable layer exposing the membrane and an ˜8 mm ( 5/16 in) diameter heat seal around the circumference of the punch (referred to as a ring seal). Each prototype contained 15 g of ammonium carbonate as the volatile insect attractant.
The trials were performed in Córdoba, Spain June-November 2019 where the average temperatures (high/low) are 32/17° C. (90/62° F.) in June, 37/19° C. (98/67° F.) in July, 35/19° C. (95/66° F.) in August, 32/18° C. (90/64° F.) in September, 24/13° C. (76/55° F.) in October, and 18/8° C. (65/47° F.) in November.

`N.N.O=C(O)O` [Ammonium Carbonate, ammonium carbonate]: the “Average Mass Loss” value is reported as 0.0890 g/day (day 0 (Jul. 22, 2019)); 0.1082 g/day (day 9 (Jul. 31, 2019)); 0.0948 g/day (day 21 (Aug. 12, 2019)); 0.0976 g/day (day 28 (Aug. 19, 2019)); 0.0498 g/day (day 45 (Sep. 5, 2019)); 0.0111 g/day (day 57 (Sep. 17, 2019)). Further, the “Average Mass Loss” value was 0.0191 g/day (day 72 (Oct. 2, 2019)); 0.0299 g/day (day 80 (Oct. 10, 2019)); 0.0001 g/day (day 91 (Oct. 21, 2019)); 0.0046 g/day (day 105 (Nov. 4, 2019)).
